Consider 5 molecules from patent US8937088B2, “Ureas for the treatment and prevention of cancer” (Astar Biotech LLC, priority 2011, dated 2015).

Like-named read-outs stand apart in the source and are kept apart here.

The subject of experiment [1] is HUH7 (human hepatoma cell line). Put plainly: Cell death detection, trypan blue exclusion assay, HUH7. It counts as cell-based. As to conditions: Huh-7, 168 h, HUH7, 7-day treatment, read-out: Cell Death (%) at Tested Concentration. How it is done:
(§1) Biological Test 2. Cell Death Detection Using Trypan Blue Exclusion Assay.
(§2) After drug treatment, cells were harvested by trypsinization with trypsin/EDTA for 10 min at 37° C. As some apoptotic cells detached from the culture substratum into the medium, these cells were also collected by centrifugation of the medium at 1,200 rpm for 5 min. The pooled cell pellets were resuspended and mixed with trypan blue dye. After Trypan blue stain was done, cells were counted by using a light microscope and a hemocytometer. Blue dye-incorporating cells were scored as being dead. Five hundred cells from randomly chosen fields were counted, and the number of dead cells was counted and expressed as a percentage of the total number of cells counted as shown in Tables 2 to 8 below.

Experiment [2] has as its system LNCaP (human prostate adenocarcinoma cell line). Put plainly: Cell death detection, trypan blue exclusion assay, LNCaP. The experiment is classed as cell-based. As to conditions: read-out: Cell Death (%) at Tested Concentration. How it is done: as §1, §2
The target in experiment [3] is BRAF (Homo sapiens, UniProt P15056). Put plainly: In vitro kinase assay (Invitrogen SelectScreen Profiling Service), BRAF. It counts as biochemical. How it is done:
(§3) Biological Test 1. In Vitro Kinase Assay for BRAF, FLT3 and KDR(VEGFR2) The inhibitory activities of the compounds of the invention were measured by Invitrogen's SelectScreen® Profiling Service.

Experiment [4] concerns the target T1, FLT3 (Homo sapiens, UniProt P36888).
T1 sequence (P36888 27-993): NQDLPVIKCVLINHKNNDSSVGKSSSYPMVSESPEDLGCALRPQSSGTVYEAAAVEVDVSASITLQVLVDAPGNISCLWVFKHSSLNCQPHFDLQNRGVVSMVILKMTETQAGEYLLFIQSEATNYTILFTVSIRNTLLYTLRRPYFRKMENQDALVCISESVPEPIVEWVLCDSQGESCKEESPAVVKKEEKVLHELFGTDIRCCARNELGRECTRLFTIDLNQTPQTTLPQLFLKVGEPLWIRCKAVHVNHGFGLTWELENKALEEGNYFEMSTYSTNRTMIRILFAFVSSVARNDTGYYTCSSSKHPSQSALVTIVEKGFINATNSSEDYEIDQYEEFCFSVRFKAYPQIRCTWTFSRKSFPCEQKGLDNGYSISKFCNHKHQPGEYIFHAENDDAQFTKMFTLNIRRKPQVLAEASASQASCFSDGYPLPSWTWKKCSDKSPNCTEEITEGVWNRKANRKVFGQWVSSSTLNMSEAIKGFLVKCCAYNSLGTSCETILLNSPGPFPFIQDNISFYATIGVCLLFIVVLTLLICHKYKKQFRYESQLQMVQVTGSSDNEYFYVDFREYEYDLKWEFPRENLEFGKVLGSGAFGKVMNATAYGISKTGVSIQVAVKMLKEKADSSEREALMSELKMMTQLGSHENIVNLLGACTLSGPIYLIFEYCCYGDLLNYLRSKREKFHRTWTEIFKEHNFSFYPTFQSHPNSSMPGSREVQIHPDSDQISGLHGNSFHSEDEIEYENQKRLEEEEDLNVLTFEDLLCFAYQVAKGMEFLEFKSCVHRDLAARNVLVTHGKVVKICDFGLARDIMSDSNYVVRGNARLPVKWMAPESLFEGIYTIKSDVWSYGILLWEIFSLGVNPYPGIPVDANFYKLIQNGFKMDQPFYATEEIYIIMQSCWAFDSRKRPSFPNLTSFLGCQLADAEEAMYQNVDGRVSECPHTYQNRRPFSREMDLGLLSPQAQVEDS
Put plainly: In vitro kinase assay (Invitrogen SelectScreen Profiling Service), FLT3. The experiment is classed as biochemical. As to conditions: FLT3, 0.1 μM. How it is done: as §3

Experiment [5] addresses KDR(VEGFR2) (Homo sapiens, UniProt P35968). Briefly: In vitro kinase assay (Invitrogen SelectScreen Profiling Service), KDR. It counts as biochemical. How it is done: as §3
Experiment [6] relates to Hep3B (human hepatoma cell line). Put plainly: Cell death detection, trypan blue exclusion assay, Hep3B. It counts as cell-based. As to conditions: 5-day treatment. How it is done:
as §1, §2

The test system of experiment [7] is HepG2 (human Hepatocellular carcinoma cell line). Briefly: Cell death detection, trypan blue exclusion assay, HepG2. It counts as cell-based. As to conditions: HepG2, 5-day treatment. How it is done:
as §1, §2

The subject of experiment [8] is HT29 (human colon adenocarcinoma cell line). Briefly: Cell death detection, trypan blue exclusion assay, HT29. The experiment is classed as cell-based. As to conditions: HT29, 5-day treatment. How it is done:
as §1, §2

For experiment [9], the system named is HUH7 (human hepatoma cell line). Put plainly: Cell death detection, trypan blue exclusion assay, HUH7, in combination with AZD-6244. It counts as cell-based. As to conditions: HUH7, 6-day treatment; for Cell Death (%) in combination with AZD-6244: compound 0.5 μM. How it is done: as §1, §2

KDR(VEGFR2), sequence (P35968 20-1356): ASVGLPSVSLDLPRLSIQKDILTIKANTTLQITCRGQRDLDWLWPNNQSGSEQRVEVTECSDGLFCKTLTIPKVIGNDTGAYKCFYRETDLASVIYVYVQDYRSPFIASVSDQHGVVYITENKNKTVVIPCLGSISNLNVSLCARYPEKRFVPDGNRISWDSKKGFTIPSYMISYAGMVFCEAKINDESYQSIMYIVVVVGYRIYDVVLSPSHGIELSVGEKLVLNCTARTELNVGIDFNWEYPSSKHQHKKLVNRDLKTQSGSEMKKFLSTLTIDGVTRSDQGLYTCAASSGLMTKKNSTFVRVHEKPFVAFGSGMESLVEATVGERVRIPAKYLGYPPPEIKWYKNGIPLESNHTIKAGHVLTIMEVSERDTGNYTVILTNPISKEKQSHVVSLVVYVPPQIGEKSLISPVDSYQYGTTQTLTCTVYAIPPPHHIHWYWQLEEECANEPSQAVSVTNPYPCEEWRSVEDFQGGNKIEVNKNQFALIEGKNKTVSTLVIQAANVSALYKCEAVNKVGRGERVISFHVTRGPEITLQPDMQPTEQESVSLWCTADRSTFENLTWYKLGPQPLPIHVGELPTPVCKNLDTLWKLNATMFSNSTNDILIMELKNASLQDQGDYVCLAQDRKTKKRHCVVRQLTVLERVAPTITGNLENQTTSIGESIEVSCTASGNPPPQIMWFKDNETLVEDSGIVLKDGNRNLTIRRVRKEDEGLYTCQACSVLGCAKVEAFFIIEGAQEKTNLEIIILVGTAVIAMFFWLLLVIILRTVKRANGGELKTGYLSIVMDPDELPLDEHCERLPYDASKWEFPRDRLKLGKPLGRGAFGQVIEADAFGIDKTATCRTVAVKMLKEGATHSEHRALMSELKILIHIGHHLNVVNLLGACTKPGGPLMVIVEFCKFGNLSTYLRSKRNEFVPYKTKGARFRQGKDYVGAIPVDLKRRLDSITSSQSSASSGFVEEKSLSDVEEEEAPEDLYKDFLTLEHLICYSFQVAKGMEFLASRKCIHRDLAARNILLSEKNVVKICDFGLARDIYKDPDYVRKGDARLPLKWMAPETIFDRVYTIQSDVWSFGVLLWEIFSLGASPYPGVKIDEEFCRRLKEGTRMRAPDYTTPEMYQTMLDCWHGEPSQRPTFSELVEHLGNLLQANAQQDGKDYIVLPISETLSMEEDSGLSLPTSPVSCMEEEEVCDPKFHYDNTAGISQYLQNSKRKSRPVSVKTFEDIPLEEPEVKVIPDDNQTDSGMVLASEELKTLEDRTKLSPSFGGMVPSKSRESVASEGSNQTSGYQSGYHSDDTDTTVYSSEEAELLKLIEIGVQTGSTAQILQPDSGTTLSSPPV
BRAF, sequence (P15056 whole entry): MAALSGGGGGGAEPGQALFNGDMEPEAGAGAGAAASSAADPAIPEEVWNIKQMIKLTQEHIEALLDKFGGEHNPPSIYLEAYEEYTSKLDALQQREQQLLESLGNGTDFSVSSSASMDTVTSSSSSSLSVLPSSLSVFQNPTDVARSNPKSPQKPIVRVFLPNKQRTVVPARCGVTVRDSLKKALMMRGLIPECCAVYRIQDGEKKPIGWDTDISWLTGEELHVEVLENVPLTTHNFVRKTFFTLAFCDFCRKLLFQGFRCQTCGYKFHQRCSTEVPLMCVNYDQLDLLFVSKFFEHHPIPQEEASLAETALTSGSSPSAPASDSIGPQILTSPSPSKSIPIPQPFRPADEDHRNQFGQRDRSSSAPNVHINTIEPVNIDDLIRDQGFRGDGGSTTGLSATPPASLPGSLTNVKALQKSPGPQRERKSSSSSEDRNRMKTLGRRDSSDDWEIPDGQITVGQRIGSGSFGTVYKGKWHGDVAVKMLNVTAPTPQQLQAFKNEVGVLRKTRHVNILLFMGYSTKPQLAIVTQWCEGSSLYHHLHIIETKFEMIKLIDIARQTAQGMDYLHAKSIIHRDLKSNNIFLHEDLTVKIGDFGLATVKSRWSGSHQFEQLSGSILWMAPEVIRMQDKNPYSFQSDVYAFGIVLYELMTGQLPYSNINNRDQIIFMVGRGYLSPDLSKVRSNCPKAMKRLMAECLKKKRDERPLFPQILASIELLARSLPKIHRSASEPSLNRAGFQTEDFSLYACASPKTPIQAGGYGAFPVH

As for `CNC(=O)c1cc(Oc2ccc(NC(=O)Nc3cc(S(F)(F)(F)(F)F)ccc3Cl)cc2)ccn1` [Example 5, 4-[4-({[2-chloro-5-(pentafluoro-λ^6-sulfanyl)phenyl]carbamoyl}amino)phenoxy]-N-methylpyridine-2-carboxamide], in [1], the cytotoxicity at 1 µM is 1.7%, the cytotoxicity at 2.5 µM turned out to be 3.1%, the cytotoxicity at 5 µM was 4.3% and the cytotoxicity at 7.5 µM was 17.2%. In addition, in experiment [1], the cytotoxicity at 10 µM was determined as 19.8%. For the same molecule, in experiment [2] (72 h, 3-day treatment), the cytotoxicity at 1 µM is 1%, the cytotoxicity at 2.5 µM worked out at 1.5%, the cytotoxicity at 5 µM was found to be 1.4% and the cytotoxicity at 7.5 µM was 2.1%. The cytotoxicity at 10 µM in [2] (72 h, 3-day treatment) was 7.6%. For the same molecule, in [2] (168 h, 7-day treatment), the cytotoxicity at 1 µM amounted to 1.8%, the cytotoxicity at 2.5 µM is 1.9%, the cytotoxicity at 5 µM came out at 2.3% and the cytotoxicity at 7.5 µM stood at 4.6%. Moreover, in [2] (168 h, 7-day treatment), the cytotoxicity at 10 µM came out at 14.7%.
For orientation: inhibition means the change of the read-out against control, counted positive when it falls. A low value points to little suppression. Regarding `CNC(=O)c1cc(Oc2ccc(NC(=O)Nc3cccc(S(F)(F)(F)(F)F)c3)cc2)ccn1` [Example 1, N-methyl-4-[4-({[3-(pentafluoro-λ^6-sulfanyl)phenyl]carbamoyl}amino)phenoxy]pyridine-2-carboxamide], the inhibition at 0.1 µM in [3] was 18%; in experiment [4], 85%; in [5] it was 79%. For the same molecule, the “Cell Death (%) at Tested Concentration” value in [6] (0.25 uM) was 3.8%; in experiment [6] (3.0 uM), 22.3%; in [6] (5.0 uM) it was 92.7%; in experiment [7] (0.25 uM), 2.6%; in experiment [7] (3.0 uM), 32.4%; in [7] (5.0 uM), 84.5%. Moreover, the results for the “Cell Death (%) at Tested Concentration” value in experiment [8] (2.5 uM), in experiment [8] (5.0 uM) and in experiment [8] (10 uM) were 12.4%, 14.5% and 68.7%, respectively. Besides, the cytotoxicity at 1 µM turned out to be 2% in [1]; 1.6% in experiment [2] (72 h, 3-day treatment); 1.6% in experiment [2] (168 h, 7-day treatment). In addition, the cytotoxicity at 2.5 µM in experiment [1] is 5.1%; in experiment [2] (72 h, 3-day treatment), 1.5%; in [2] (168 h, 7-day treatment), 2.8%. Moreover, the cytotoxicity at 5 µM in [1] is 18.3%; in experiment [2] (72 h, 3-day treatment) it was 1.3%; in experiment [2] (168 h, 7-day treatment) it was 2.8%. Further, the cytotoxicity at 7.5 µM in experiment [1] came to 52.7%; in experiment [2] (72 h, 3-day treatment) it was 7.3%; in experiment [2] (168 h, 7-day treatment), 99%. Moreover, the cytotoxicity at 10 µM stood at 72.3% in experiment [1]; 62.5% in experiment [2] (72 h, 3-day treatment); 99% in experiment [2] (168 h, 7-day treatment). In addition, the “Cell Death (%) in combination with AZD-6244” value (shortened to “Cell Death (%) in combination”) in [9] (AZD-6244 0 μM) was 2.3%; in experiment [9] (AZD-6244 0.5 μM), 99%.
As for `CNC(=O)c1cc(Oc2ccc(NC(=O)Nc3cccc(S(F)(F)(F)(F)F)c3)c(F)c2)ccn1` [Example 2, 4-[3-fluoro-4-({[3-(pentafluoro-λ^6-sulfanyl)phenyl]carbamoyl}amino)phenoxy]-N-methylpyridine-2-carboxamide], the figures for the inhibition at 0.1 µM in experiment [3], in experiment [4] and in experiment [5] were 14%, 71% and 76%, respectively. Further, the “Cell Death (%) at Tested Concentration” value in experiment [6] (0.25 uM) stood at 4.1%; in experiment [6] (3.0 uM), 92.7%; in [6] (5.0 uM), 98.5%; in experiment [7] (0.25 uM), 2.2%; in experiment [7] (3.0 uM), 94.7%; in [7] (5.0 uM), 99%. In addition, the figures for the “Cell Death (%) at Tested Concentration” value in [8] (2.5 uM), in [8] (5.0 uM) and in experiment [8] (10 uM) were 12.3%, 14.7% and 24.8%, respectively. For the same molecule, the cytotoxicity at 1 µM amounted to 2.4% in experiment [1]; 1.7% in experiment [2] (72 h, 3-day treatment); 1.5% in [2] (168 h, 7-day treatment). In addition, the cytotoxicity at 2.5 µM is 7.3% in experiment [1]; 1.8% in experiment [2] (72 h, 3-day treatment); 2.7% in experiment [2] (168 h, 7-day treatment). The cytotoxicity at 5 µM was 42.6% in experiment [1]; 1.6% in [2] (72 h, 3-day treatment); 2.5% in experiment [2] (168 h, 7-day treatment). In addition, the cytotoxicity at 7.5 µM in [1] was 72.6%; in experiment [2] (72 h, 3-day treatment), 4.2%; in experiment [2] (168 h, 7-day treatment) it was 17.3%. Moreover, the cytotoxicity at 10 µM in experiment [1] was 75.2%; in experiment [2] (72 h, 3-day treatment) it was 83.7%; in [2] (168 h, 7-day treatment), 99%. Further, the results for the “Cell Death (%) in combination” value in experiment [9] (AZD-6244 0 μM) and in experiment [9] (AZD-6244 0.5 μM) were 3.6% and 99%, respectively.
As to `CNC(=O)c1cc(Oc2ccc(NC(=O)Nc3cc(S(F)(F)(F)(F)F)ccc3Cl)c(F)c2)ccn1` [Example 6, 4-[4-({[2-chloro-5-(pentafluoro-λ^6-sulfanyl)phenyl]carbamoyl}amino)-3-fluorophenoxy]-N-methylpyridine-2-carboxamide], the “Cell Death (%) at Tested Concentration” value in experiment [6] (0.25 uM) amounted to 3.9%; in experiment [6] (3.0 uM) it was 38.4%; in experiment [6] (5.0 uM), 89.6%; in [7] (0.25 uM), 2.6%; in [7] (3.0 uM), 90.7%; in experiment [7] (5.0 uM), 99%. In addition, the entries for the “Cell Death (%) at Tested Concentration” value in experiment [8] (2.5 uM), in [8] (5.0 uM) and in [8] (10 uM) were 11.7%, 13.4% and 22.1%, respectively. For the same molecule, the cytotoxicity at 1 µM is 2% in [1]; 1.1% in experiment [2] (72 h, 3-day treatment); 1.7% in experiment [2] (168 h, 7-day treatment). Further, the cytotoxicity at 2.5 µM was 2.2% in experiment [1]; 1.3% in experiment [2] (72 h, 3-day treatment); 1.9% in experiment [2] (168 h, 7-day treatment). For the same molecule, the cytotoxicity at 5 µM in experiment [1] was 7.4%; in [2] (72 h, 3-day treatment), 1.2%; in experiment [2] (168 h, 7-day treatment), 2.4%. The cytotoxicity at 7.5 µM in [1] amounted to 32.1%; in experiment [2] (72 h, 3-day treatment) it was 3.6%; in [2] (168 h, 7-day treatment), 4.8%. Further, the cytotoxicity at 10 µM in [1] is 35.4%; in experiment [2] (72 h, 3-day treatment), 4.3%; in [2] (168 h, 7-day treatment), 13.4%. In addition, the “Cell Death (%) in combination” value in experiment [9] (AZD-6244 0 μM) was 2.1%; in experiment [9] (AZD-6244 0.5 μM) it was 99%.
Regarding `Cn1cnc2c(F)c(Nc3ccc(Br)cc3Cl)c(C(=O)NOCCO)cc21` [AZD-6244, reference compound], the “Cell Death (%), AZD-6244 alone” value in experiment [9] (AZD-6244 0.5 μM, no other compound (0)) was 2.3%.
